Laboratory results: patent US5843947A, “N-pyridyl carboxamides and derivatives” (priority 1994, dated 1998)

Key:
[1] = tested on: inflammation induced by carrageenan (plantar edema); test: Anti-inflammatory activity: plantar edema using carrageenan; assay type: in vivo, Sprague-Dawley rats; settings: rat, compounds 10 mg/kg oral 30 min before carrageenan, indomethacin 10 mg/kg
Method: The method used is that of plantar edema using carrageenan. The procedure used is as follows: 1% carrageenan in 0.2 ml of […] is administered into the sole of the right foot of Sprague-Dawley rats weighing 250 g on average. The volume of the paw is measured by plethysmography after one hour and after two hours.
The compounds of the invention are administered in a 10 mg/kg oral dose 30 minutes before the administration of carrageenan. A saline solution is injected into the sole of the left foot, which serves as a control.
The compounds of the invention make it possible to reduce the increase in volume of the right foot relative to that of the left foot (Table 1).

[2] = tested on: arthritis induced by killed Mycobacterium tuberculosis (complete Freund adjuvant); test: Study of an activity of anti-arthritic type in rats (complete Freund adjuvant); assay type: in vivo, Lewis rats; settings: rat, oral, days 1 to 5; day 18
Method: Groups of 5 male or female Lewis rats weighing from 130 to 150 g are used. A suspension of 0.3 mg of killed Mycobacterium tuberculosis in 0.1 cm^3 of mineral oil (complete Freund adjuvant, CFA) is administered into the subplantar region of the right hind foot on day 1. The volumes of the hind feet are measured by water displacement on days 0, 1, 5, 14 and 18. The rats are weighed on days 0 and 18. The test products are suspended in carboxymethylcellulose and administered orally for 5 consecutive days, on days 1 to 5. In parallel, a control group is used in order to eliminate artefacts resulting from the handling of the animals. A group treated with a reference product (hydrocortisone) allows the test to be validated.

[3] = tested on: acute cutaneous inflammation (phorbol ester ear edema); test: Activity against acute cutaneous inflammation (topical), phorbol ester ear edema; assay type: in vivo; settings: mouse, 6 hours
Method: Phorbol ester (phorbol 12-myristate 13-acetate) (5 μg) is applied topically to the front and back surfaces of the right ear of the mouse 30 minutes after application of the vehicle (95% ethanol) or of the agent (1 mg). The difference in thickness between the right ear and the left ear (edema) is measured 6 hours after application.
The percentage of inhibition of cutaneous inflammation relative to a group of animals treated topically with 95% ethanol is calculated. The compound of Example 1, at a rate of 1 mg/ear, allows a 63% reduction of the inflammation. Indomethacin, taken as a reference, at a dose of 2.5 mg/ear, allows a 67% reduction of inflammation.

[4] = tested on: chronic inflammation of the ear induced by repeated phorbol ester; test: Curative activity after repeated topical application in chronic inflammation of the ear, repeated phorbol ester (PMA) for 15 days (model of psoriasis); assay type: in vivo; settings: mouse, 0.5 mg/ear
Method: Phorbol ester (1 μg) is applied topically to the front and back surfaces of the right ear of the mouse on days 0, 2, 4, 7, 9, 11 and 14. The vehicle or the agent is applied topically twice daily, on days 7, 8, 9, 10, 11, 12, 13 and 14, and once on the 15th day. On days 7, 9, 11 and 14 the vehicle or the agent is applied 30 minutes before and after the phorbol ester.
Two parameters are measured
1. Difference in thickness between the right and left ears every day and on days 0, 2, 4, 7, 9, 11 and 14, 6 hours after repeated application of the phorbol ester.
After repeated application of phorbol ester and after 15 days, the thickness reflects not only the presence of an edema and of an infiltration of lymphocyte and monocyte-macrophage neutrophil type cells in the skin tissue (inflammation) but also of an increase in the thickness of the epidermis (epidermal hyperplasia secondary to a proliferation of keratinocytes). […]
The products of the invention, in topical, curative and repeated use, inhibit, between the 8th and 10th days, the chronic inflammation of the right ear (measured, on the one hand, by the difference in thickness between the right ear and the left ear, and, on the other hand, by the difference in weight between the two ears after sacrificing the animal on the 15th day) induced by a repeated application of phorbol ester in mice.

[5] = Study of the diuretic activity (urinary volume); assay type: in vivo, rats; settings: 6 hours
[6] = tested on: chronic inflammation of the ear induced by repeated phorbol ester; settings: 15 days after repeated application of phorbol ester; cited from earlier work

With `Cc1cc(C)nc(NC(=O)c2cnccn2)c1` the “Percentage of inhibition, 1 h” value [1] was 55% and the “Percentage of inhibition, 2 h” value [1] was 64%.

With `Cc1cc(C)nc(NC(=O)Cc2cccs2)c1` [Example 1, N-(4,6-DIMETHYL-2-PYRIDYL)-2-THIENYLACETAMIDE] the “reduction in the volume of the right hind foot” value [2] was 47% and the “reduction of the inflammation” value ([3]; 1 mg/ear) was 63%.

With `Cc1nc(N)c(NC(=O)Cc2ccsc2)c(C)c1Br` [Example 17, N-(2-AMINO-5-BROMO-4,6-DIMETHYL-3-PYRIDYL)-3-THIENYLACETAMIDE] the “reduction of the difference in thickness between the two ears” value [4] was 60% and the “reduction of the weight difference” value ([4]; ear punches) was 38%.

For `Cc1cc(C)nc(NC(=NN)c2cnccn2)c1` [Example 25, N-(4,6-DIMETHYL-2-PYRIDYL)-2-PYRAZINECARBOXAMIDE HYDRAZONE], the “increase of urinary volume (factor relative to an untreated rat)” value ([5]; 3 mg/kg p.o.) was 2.8.

For `COc1ccc2c(c1)c(CC(=O)O)c(C)n2C(=O)c1ccc(Cl)cc1` [Indomethacin, reference compound], the “topical activity in the chronic model (in words)” value (“topical activity” below) [6] is listed as “topically inactive”, the “reduction of inflammation, reference” value ([3]; 2.5 mg/ear) is listed as 67% and the “Percentage of inhibition, 1 h” value [1] is listed as 24%. The “Percentage of inhibition, 2 h” value [1] was 64%.

In the case of `Cc1cc(C)nc(NC(=O)Cc2cccs2)c1` [drawing 58], the “Percentage of inhibition, 1 h” value [1] is reported as 63% and the “Percentage of inhibition, 2 h” value [1] is reported as 70%.

For `NS(=O)(=O)c1cc(C(=O)O)c(NCc2ccco2)cc1Cl` [furosemide, reference compound], the “increase of urinary volume (factor), reference” value ([5]; rat, 5 mg/kg p.o.) was 3.

For `CN1C(C(=O)Nc2ccccn2)=C(O)c2ccccc2S1(=O)=O` [piroxicam], the “topical activity” value [6] is listed as “topically inactive”.

For cyclosporin A, the “topical activity” value [6] is listed as “topically active”.
